Results published in paper PMC6856805, “Environmental Risk Assessment for the Active Pharmaceutical Ingredient Mycophenolic Acid in European Surface Waters” (Environmental Toxicology and Chemistry, 2019).
Several values for one entry are separate records, joined by “and”; a condition that tells them apart may be missing. Equal values may be shown once.

Columns and labels:
bacteria = test: Derivation of provisional PNEC for antibiotic resistance (PNECABR)
Description: Antibiotic resistance risk is assessed through comparing PECs or MECs with a PNEC for formation or maintenance of antibiotic resistance (PNECABR). There is no universally accepted or regulatory algorithm for deriving a reliable PNECABR for bacteria, so for the time being this is approximated by applying assessment factors to bacterial minimal inhibitory concentrations (MICs). […] To be fully consistent with Bengtsson‐Palme and Larsson's (2016) approach to PNECABR derivation, the authors were contacted for help; they (J. Bengtsson‐Palme, Department of Infectious Diseases, Institute of Biomedicine, The Sahlgrenska Academy, University of Gothenberg, Gothenberg, Sweden, personal communication) state that “we only use species with 10 or more MIC observations, to avoid drawing conclusions from insufficient data […] . The only species with >10 observations in the Noto et al. (1969) paper is S[taphylococcus] aureus. In addition, when the MIC1% are selected, only one MIC [J.O.Straub's italics] value is selected per species (the lowest). Finally, the uncertainty factor for low sampling numbers is calculated as: (observed lowest MIC) × (number of tested species) ÷ 41.” Both these provisional PNECABR values were derived from the MPA MICs; the lower was selected and compared with the PECs and MECs.
Noto et al. (1969) tested the activity of MPA against various microorganisms, both fungi and some strains of bacteria. […] Higher inhibition of MPA was shown against pathogenic fungi of the genera Candida, Willia, Cryptococcus, Microsporum, Aspergillus, and Trichophyton, with MICs ranging from 3.9 to 500 mg/L (Noto et al. 1969).

[1] = parameters: method as in Wishart et al. 2018; Royal Pharmaceutical Society 2018; settings: ref Wishart et al. 2018; Royal Pharmaceutical Society 2018; cited from earlier work
Artemia salina = test system: Artemia salina; parameters: method as in earlier work; settings: non‐GLP; ref Ďuračková et al. 1977; cited from earlier work
[2] = Photodegradation in buffered aqueous solutions under natural sunlight; format: physicochemical
Description: In contrast, Franquet‐Griell et al. (2017a) reported MPA k photo values of 0.0284 min^–1 for UV‐C irradiation and 0.004 min^–1 in a Solar Box artificial sunlight reactor. […] Giebułtowicz and Nałęcz‐Jawecki (2016) presented a UV‐visual light spectrum of MPA in their Supporting Information with a λmax at 215 nm and 2 sequentially lower peaks at 248 and 297 nm, confirming UV‐C photosensitivity.
The photodegradation of MPA in buffered aqueous solutions at pH 5, 7 and 9 under natural sunlight was determined by Syntex, 'closely following the US FDA guideline' (Nicholson 1994)). MPA was used in solutions of 3.12×10^–5 M (= 10 mg/L); the pH 5 solution was buffered with 0.1 M sodium acetate, the pH 7 solution with 0.1 M monobasic sodium phosphate and the pH 9 solution with 0.1 M sodium borate buffer. As actinometers (reference photodegradants) p-nitroanisole at 1.00×10^–5 M was used, with 4.96×10^–3 M pyridine for pH 5, with 6.20×10^–3 M pyridine for pH 7 and with 9.93×10^–3 M pyridine for pH 9. In each of the seasonal studies, hermetically closed quartz tubes with either one of the MPA solutions or the corresponding actinometer solutions were exposed to natural sunlight in triplicate. Single control tubes containing either MPA solution or actinometer solution, both at different pHs, were wrapped in aluminium foil and covered in black plastic and exposed in parallel. The tubes were set up in Palo Alto, Ca, USA at 37° 25' N, in parallel on a board painted black, which was exposed on a stand pointing due […] at an angle of 30°. Data for the four seasonal experiments, with date, time of initiation and end, sampling intervals, weather, cloud cover and temperature, are given in the report. At each of several equivalent timepoints, one set of tubes was removed from sunlight, analysed by HPLC and compared with the respective dark control. The substance loss of p-nitroanisole, with known quantum yield, in the […] served to calibrate the loss of MPA in the test tubes and determine the photolytic rate constants kphoto and half-lives for MPA at different pH levels and insolations over the seasons.

[3] = OECD test guideline 106 batch equilibrium adsorption test; format: physicochemical
Description: An OECD 106 phase I batch equilibrium adsorption test was performed by Toxi-Coop, Balatonfűred, Hungary (Halász-Laky 2018) with MPA and three soils plus two activated sludges of different characteristics (pHKCl, organic carbon (OC) content, plus for the soils sand fraction, silt fraction, clay fraction and USDA soil texture).
In short, the substrates were put in contact with MPA in aqueous 0.01 M CaCl2 solutions; the mixture was agitated for an appropriate time to reach equilibrium, in the case of MPA for 10 hours. The soil/sludge suspensions were then separated and the aqueous phase diluted twofold with the mobile HPLC phase, analysed by HPLC (Supplemental Information) and the amount of test item in the water phase calculated. The soil or sludge phases were extracted twice with acetonitrile/water/1 mg/mL NaOH solution (75/75/2, v/v/v); the extracts were diluted twofold with the mobile phase and then analysed by HPLC. Based on the analytics the mass balance could be established. The adsorption constant Kd was calculated as MPA concentration adsorbed to substrate divided by MPA concentration in aqueous CaCl2 solution; subsequently the Kd was normalised to the OC content to result in the KOC for the different substrates (Halász-Laky 2018).

[4] = test system: Rhaphidocelis (Pseudokirchneriella) subcapitata; settings: cited from earlier work

## COc1c(C)c2c(c(O)c1CC=C(C)CCC(=O)O)C(=O)OC2 [MPA, 6‐(1,3‐dihydro‐4‐hydroxy‐6‐methoxy‐7‐methyl‐3‐oxo‐5‐isobenzofuranyl)‐4‐methyl‐4‐hexenoic acid]
bacteria; lower of the 2 values
  provisional PNECABR (rounded down, selected): 64 µg MPA/L
bacteria; lowest MIC divided by 100, following Kümmerer and Henninger (2003)
  first provisional PNECABR: 312.5 µg/L
bacteria; procedure of Bengtsson‐Palme and Larsson (2016), before rounding
  second provisional PNECABR: 76 µg/L
[1]
  fraction phase‐I‐metabolized to 6‐O‐desmethyl‐MPA: less than 1%
  terminal half‐life: approximately 18 h
Artemia salina
  16‐h LC50: 98.4 mg MPA/L
[2]; pH 5, summer
  k photo: 0.0059 min^–1
[2]; pH 5, winter
  k photo: 0.0017 min^–1
[2]; pH 7, summer
  k photo: 0.018 min^–1
[2]; pH 7, winter
  k photo: 0.0049 min^–1
[2]; pH 9, summer
  k photo: 0.031 min^–1
[2]; pH 9, winter
  k photo: 0.0087 min^–1
[3]; in one of the activated sludges
  highest K OC: 37 L/kg
[3]; two activated sludges
  activated sludge K d: 9.3 L/kg and 13 L/kg
[4]; GMMC, 24 h dark + 72 h light, ref European Chemicals Agency 2018
  ErC50: 68 µg/L
[4]
  ErC10: 12 µg/L
  NOErC: 9 µg/L
